Where a name gives a salt, the structure may show the parent alone.
What follows are molecules tested on serum TNFα (assay: In vivo LPS-induced TNFα production (serum TNFα, ELISA)). Details: 5.0 ng/kg (so in the source), orally 90 min before LPS (7.5 mg/kg i.p.), serum 2 h after LPS.
Parameters: species or system Male BALB/c mice
Procedure: 2. In vivo LPS-induced TNFα production Male BALB/c mice (18-20 g) were obtained from Harlan-Nossan (Correzzana, Italy); Lipopolysaccharide (LPS) from S. enteritidis (code L-6011) was from Sigma (St. Louis, Mo.); Dexamethasone (Soldesam) from Laboratorio Farmacologico Milanese (Caronno P., Italy).
Mice were treated i.p. with LPS (S. enteritidis, 7.5 mg/kg). Dexamethasone was administered i.p. 30 min. before LPS. Compounds were administered orally 90 min. before LPS. Two hours after LPS administration the anaesthetized animals were sacrificed, blood was collected by cardiac puncture and allowed to coagulate. Serum TNFα was measured by ELISA with "mouse Reagent Sets" (Genzyme, Cambridge, Mass.) according to the manufacturer's instructions and using mouse recombinant TNFα as standard.
CCN(CC)Cc1ccc2cc(COC(=O)Nc3ccc(C(=O)NO)cc3)ccc2c1 [Example 12, hydrochloride] was tested, and the “Inhibition (%)” value was 64.3% and the TNFα was 407 pg/mL.

Same assay, conditions: 0.5 mg/kg, orally 90 min before LPS (7.5 mg/kg i.p.), serum 2 h after LPS
With CCN(CC)Cc1ccc2cc(COC(=O)Nc3ccc(C(=O)NO)cc3)ccc2c1 [Example 12, hydrochloride] the “Inhibition (%)” value was 55.0% and the TNFα was 514 pg/mL.

Same assay, conditions: 30 mg/kg, i.p. 30 min before LPS (7.5 mg/kg i.p.), serum 2 h after LPS
In the case of C[C@@H]1C[C@H]2[C@@H]3CCC4=CC(=O)C=C[C@]4(C)[C@@]3(F)[C@@H](O)C[C@]2(C)[C@@]1(O)C(=O)CO [Dexamethasone, reference compound], the “Inhibition (%)” value is reported as 90.2% and the TNFα is reported as 112 pg/mL.

What follows are molecules tested on human IL-1β (assay: In vitro cytokines production test (LPS-stimulated human PBMC, IL-1β ELISA)). Details: 10 ng/ml LPS, 60 min pretreatment, 20 hours culture, read-out: IC50 (inhibition of IL-1β production).
Assay type: cell-based
Procedure: 1. In vitro cytokines production test
The compounds of the invention were tested by in particular on the production of human IL-1β. Mononuclear cells (PBMC) were prepared from peripheral blood ("buffy coat") from healthy donors, by centrifugation over density gradient Ficoll-Hypaque (Biochrom KG, Berlin, Germany). The cells (2,5×10^6 for ml) were cultured at 37° C. under humid atmosphere containing 5% CO2 in 96-wells plates (Nunc) at a final volume of 200 μl. […] The production of cytokines was induced by stimulating the cells with 10 ng/ ml of LPS (lipopolysaccharide) from E. coli serotype 055:B5 (Sigma Chemical Co., St. Louis. Mo.). The cells were pretreated with the compounds of the intention dissolved in DMSO (final concentration: 0.05% […]) for 60 minutes. The compounds and LPS were present during the whole 20 hours of culture. As the negative control, not-stimulated cells were used. At the end of the test, supernatants were collected and the IL-1β production was tested by a specific ELISA assay ("sandwich-type antigen capture", R & D System, Minneapolis, Minn.; all of the tests were carried out in duplicate). A goat polyclonal serum specific for human IL-1β was used, purified by affinity, to cover the 96-wells microtitration plates (Nunc). After washing, the wells were incubated for 2 hours with 3% of boyine serum albumine (BSA) in buffered saline. Recombinant human IL-1β was used to obtain a standard curve for each test and the supernatant samples were diluted to 1/20 and 1/80 with PBS+0.1% of BSA. The plates were then incubated at 4° C. overnight. After washing, the secondary antibody was added, i.e. an anti- human lL-1β murine monoclonal antibody. After incubation and washing, a goat anti-murine Ig-G polyclonal antibody peroxidase-conjugated (Zymed) was added, then the chromogenic substrate tetramethylbenzidine dichloride (Sigma). The reaction was stopped with 4N H2 SO4 and the absorbance at 450 nm was measured with an automatic spectrophotometer (Perkin-Elmer).
O=C(CCCCc1ccccc1)Nc1ccc(C(=O)NO)cc1 [Example 1, 4-(5-Phenylpentanamido)benzohydroxamic acid] was tested, and the IC50 was 0.305 µM. With O=C(NCc1ccc(C(=O)NO)cc1)OCC(c1ccccc1)c1ccccc1 [Example 2, 4-[2,2-(Diphenyl)ethoxycarbamoylmethyl]benzohydroxamic acid] the IC50 was 0.163 µM. O=C(Nc1ccc(C(=O)NO)cc1)OCCC12CC3CC(CC(C3)C1)C2 [Example 3] showed an IC50 of 0.531 µM. O=C(Nc1ccc(C(=O)NO)cc1)OCc1cccc2ccccc12 [Example 4] gave an IC50 of 0.028 µM. O=C(Nc1ccc(C(=O)NO)cc1)OCC1CCc2ccccc2C1 (stereo not shown) [Example 5] gave an IC50 of 0.137 µM. Work on O=C(Nc1ccc(C(=O)NO)cc1)OCCCc1ccccc1 [Example 6] yielded an IC50 of 0.043 µM. Work on O=C(Nc1ccc(C(=O)NO)cc1)OCc1ccc2ccccc2c1 [Example 7] yielded an IC50 of 0.012 µM. O=C(Nc1ccc(C(=O)NO)cc1)OC/C=C/c1ccccc1 [Example 8] showed an IC50 of 0.029 µM. Work on O=C(Nc1ccc(C(=O)NO)cc1)OC/C=C\c1ccccc1 [Example 9] yielded an IC50 of 0.072 µM. O=C(Nc1ccc(C(=O)NO)cc1)OCCC(c1ccccc1)c1ccccc1 [Example 10] gave an IC50 of 0.101 µM. Work on CCN(CC)Cc1ccc2cc(COC(=O)Nc3ccc(C(=O)NO)cc3)ccc2c1 [Example 12, hydrochloride] yielded an IC50 of 0.096 µM. CCCN(CCC)Cc1ccc2cc(COC(=O)Nc3ccc(C(=O)NO)cc3)ccc2c1 [Example 13, hydrochloride] showed an IC50 of 0.166 µM. CCCCN(CCCC)Cc1ccc2cc(COC(=O)Nc3ccc(C(=O)NO)cc3)ccc2c1 [Example 14, hydrochloride] showed an IC50 of 0.382 µM. CCN(CC)Cc1ccc(COC(=O)Nc2ccc(C(=O)NO)cc2)c2ccccc12 [Example 15, hydrochloride] gave an IC50 of 0.014 µM. In the case of CCN(CC)Cc1ccc2cc(CNC(=O)Nc3ccc(C(=O)NO)cc3)ccc2c1 [Example 16, hydrochloride], the IC50 is reported as 0.01 µM. CC(C)N1Cc2ccccc2CC1COC(=O)NCc1ccc(C(=O)NO)cc1 (stereo not shown) [Example 17, 4-[N-isopropyl-1,2,3,4-tetrahydroisoquinol-3-yl)methyloxycarbamoylmethyl]benzohydroxamic acid hydrochloride] was tested, and the IC50 was 0.021 µM.

From patent publication US6034096A, “Compounds with anti-inflammatory and immunosuppressive activities” (Italfarmaco S.p.A., priority 1996, dated 2000)
